Experimental data taken from US9061984B2 (University of Louisville Research Foundation, Inc., priority 2008, dated 2015).
pIC50: −log10 of the molar value. Where two headings read alike, the source gives them in different places.

How the values were obtained:
L. amazonensis = details: intralesional, compounds 5 mg/kg/day; for Mean lesion size (mm) / Mean parasite quantification (per 10^6) in lesion per mg (±SD) / Mean lesion wt (mg) (±SD) / % Variation of lesion wt / % reduction of parasite burden in the lesion: Glucantime 33 mg Sb(v)/kg/day; for Mean lesion wt (mg) (±SD): BALB/c mice n=10; for % Variation of lesion wt / % reduction of parasite burden in the lesion: vs control
peritoneal macrophages = assay: Toxicity to peritoneal macrophages (Trypan Blue count); assay type: cell-based, BALB/C mouse; details: Mus musculus, Peritoneal macrophage, 48 h; Table 7; read-out: IC50 Macrophage
Protocol: Peritoneal macrophages were prepared as follows. Non-inflammatory macrophages (10^6) were collected from each BALB/C mouse. The cells adhered at 37° C. after 2 h under 5% CO2 in a CO2 incubator. The plates were then rinsed two to three times with 0.5 mL of RPMI+buffer MOPS without fetal calf serum to eliminate non-adhering cells. The supernatant on the plates was replaced by fresh medium (RPMI+glutamine+FCS+antibiotics), 0.5 mL of medium per well. To determine the toxicity of the compounds to macrophages, dilutions of compounds were added on a part of the macrophages prepared above. […] The medium was then removed and 1 μL of sterile Trypan Blue was added. Cover glasses N° 1 were left where cells were plated and then the number of macrophages in a microscope was determined with a haemocytometer. All experiments were performed in triplicate.

[1] = tested on: axenic amastigotes of L. amazonensis (strain MHOM/BR/76/LTB-012); assay: microbe, parasite or virus in culture; details: Leishmania amazonensis, 72 h, read-out: IC50 L. amazonensis
[2] = tested on: Trypanosoma cruzi (Tulahuen C4); assay: In vitro anti-T. cruzi activity (β-galactosidase CPRG colorimetric assay in VERO monolayer); assay type: cell-based; details: Trypanosoma cruzi, TULAHUEN, Vero; for inhibition at 10 µg/mL: 120 h, 10 μg/mL of each compound, 120 hours, read-out: T. cruzi Inhib. (%); for pIC50: Table 3, read-out: IC50 T. cruzi

| Compound | pIC50 (peritoneal macrophages) | pIC50 [1] | also measured |
| --- | --- | --- | --- |
| N-methylglucamine antimoniate [Glucantime, reference compound] | – | – | Mean lesion size (mm) (L. amazonensis; after 4 weeks treatment): 2.1 mm; Mean parasite quantification (per 10^6) in lesion per mg (±SD) (L. amazonensis; after 4 weeks treatment): 0 (0) amastigotes (×10^6)/mg; Mean lesion wt (mg) (±SD) (L. amazonensis; after 4 weeks treatment): 5.6 (±0.4) mg; % Variation of lesion wt (L. amazonensis; after 4 weeks treatment): 91%; % reduction of parasite burden in the lesion (L. amazonensis; after 4 weeks treatment): 100%; Mean lesion size (mm) (L. amazonensis; after 7 weeks treatment): 2.2 mm; Mean parasite quantification (per 10^6) in lesion per mg (±SD) (L. amazonensis; after 7 weeks treatment): 0 (0) amastigotes (×10^6)/mg; Mean lesion wt (mg) (±SD) (L. amazonensis; after 7 weeks treatment): 13.5 (±2.9) mg; % Variation of lesion wt (L. amazonensis; after 7 weeks treatment): 85%; % reduction of parasite burden in the lesion (L. amazonensis; after 7 weeks treatment): 100%; Lesion diameter (L. amazonensis; Glucantime 33 mg/kg/day): 2.2 mm; Reduction of parasite burden After 4 weeks (L. amazonensis; Glucantime 33 mg/kg/day, after 4 weeks): 100%; Reduction of parasite burden After 7 weeks (L. amazonensis; Glucantime 33 mg/kg/day, after 7 weeks): 100% |
| COc1cc(O)cc(O)c1C(=O)/C=C/c1ccccc1F [Compound I-34, (2E)-1-(2,4-Dihydroxy-6-methoxyphenyl)-3-(2-fluorophenyl)-2-propen-1-one] | 4.80 | 4.93 | – |
| COc1cc(O)cc(O)c1C(=O)/C=C/c1ccc(C(F)(F)F)cc1 [Compound I-32, (2E)-1-(2,4-Dihydroxy-6-methoxyphenyl)-3-[4-(trifluoromethyl)phenyl]-2-propen-1-one] | 4.77 | 5.07 | – |
| COc1cc(O)cc(O)c1C(=O)/C=C/c1ccc(F)cc1 [Compound I-40, (2E)-1-(2,4-Dihydroxy-6-methoxyphenyl)-3-(4-fluorophenyl)-2-propen-1-one] | 4.54 | 4.93 | – |
| COc1cc(O)cc(O)c1C(=O)/C=C/c1ccc(Cl)cc1 [Compound I-33, (2E)-3-(4-Chlorophenyl)-1-(2,4-dihydroxy-6-methoxyphenyl)-2-propen-1-one] | 4.72 | 4.95 | – |
| COc1cc(O)cc(O)c1C(=O)/C=C/C=C/c1ccccc1 [Compound I-39, (2E,4E)-1-(2,4-Dihydroxy-6-methoxyphenyl)-5-phenyl-2,4-pentadien-1-one] | – | 4.28 | – |
| COc1cccc(/C=C/C(=O)c2c(O)cc(O)cc2OC)c1 [Compound I-31, (2E)-1-(2,4-Dihydroxy-6-methoxyphenyl)-3-(3-methoxyphenyl)-2-propen-1-one] | 4.75 | 4.92 | – |
| COc1cc(/C=C/C(=O)c2c(O)cc(O)cc2OC)ccc1O [Compound I-37, (2E)-1-(2,4-Dihydroxy-6-methoxyphenyl)-3-(3-methoxy-4-hydroxyphenyl)-2-propen-1-one] | – | 4.83 | – |
| COc1cc(O)cc(O)c1C(=O)/C=C/c1ccc(C)cc1 [Compound I-41, (2E)-1-(2,4-Dihydroxy-6-methoxyphenyl)-3-(4-methylphenyl)-2-propen-1-one] | 4.78 | 5.13 | – |
| COc1cc(O)cc(O)c1C(=O)/C=C/c1ccc(O)cc1 [Compound I-30, (2E)-1-(2,4-Dihydroxy-6-methoxyphenyl)-3-(4-hydroxyphenyl)-2-propen-1-one] | 4.66 | 4.80 | – |
| C=CCOc1cc(OC)c(C(=O)/C=C/c2ccc[nH]2)c(OCC=C)c1 [Compound I-22, (2E)-3-(1H-pyrrol-2-yl)-1-[2-methoxy-4,6-bis(2-propenyloxy)phenyl]-2-propen-1-one] | – | 4.03 | inhibition at 10 µg/mL [2]: 1.25%; pIC50 [2]: < 4.00 |
| C=CCOc1cc(OC)c(C(=O)/C=C/C=C/c2ccccc2)c(OCC=C)c1 [Compound I-21, (2E,4E)-1-[2-Methoxy-4,6-bis(2-propenyloxy)phenyl]-5-phenyl-2,4-pentadien-1-one] | – | 4.12 | inhibition at 10 µg/mL [2]: 47.7%; pIC50 [2]: < 4.60 |
| C=CCOc1cc(OC)c(C(=O)/C=C/c2ccc(O)c(OC)c2)c(OCC=C)c1 [Compound I-18, (2E)-1-[2-Methoxy-4,6-bis(2-propenyloxy)phenyl]-3-(3-methoxy-4-hydroxyphenyl)-2-propen-1-one] | – | 3.97 | inhibition at 10 µg/mL [2]: 27.9%; pIC50 [2]: < 4.60 |
| COc1cc(/C=C/C(=O)c2c(O)cc(O)cc2OC)cc(OC)c1OC [Compound I-38, (2E)-1-(2,4-Dihydroxy-6-methoxyphenyl)-3-(3,4,5-trimethoxydroxyphenyl)-2-propen-1-one] | – | 5.01 | – |
